Reference: ChEMBL document CHEMBL1155820, “Lipid-conjugated oligonucleotides via "click chemistry" efficiently inhibit hepatitis C virus translation” (J Med Chem, 2008)
Calls of active or inactive are those of the source. The rule behind the calls is not given here.

Tests used:
Hepatitis C virus [1] = assay: Inhibition of hepatitis C virus internal ribosome entry site-mediated translation in human Huh7 cells at 1 uM preincubated for 4 hrs in presence of fetal calf serum by bicistronic luciferase reporter gene assay; format: functional, Hepacivirus hominis; details: Huh-7
[2] = Cytotoxicity against human Huh7 cells at 0.1 to 2 uM; format: cell-based; details: huh-7, 2 µM
Hepatitis C virus [3] = assay: Inhibition of hepatitis C virus internal ribosome entry site-mediated translation in human Huh7 cells preincubated for 4 hrs in presence of fetal calf serum by bicistronic luciferase reporter gene assay; format: functional, organism-based; details: Hepacivirus hominis; Huh-7
Hepatitis C virus [4] = assay: Inhibition of hepatitis C virus internal ribosome entry site-mediated translation in human Huh7 cells at 2 uM preincubated for 4 hrs in presence of fetal calf serum by bicistronic luciferase reporter gene assay; format: functional, Hepacivirus hominis; details: Huh-7

SMILES | inhibition at 1 µM (Hepatitis C virus [1]) | Activity [2] | Activity (Hepatitis C virus [3]) | inhibition at 2 µM (Hepatitis C virus [4])
CO[C@@H]1[C@H](OP(=O)(O)O)[C@@H](COP(=O)(O)O[C@H]2[C@@H](OC)[C@H](n3cnc4c(=O)[nH]c(N)nc43)O[C@@H]2COP(=O)(O)O[C@H]2[C@@H](OC)[C@H](n3cnc4c(=O)[nH]c(N)nc43)O[C@@H]2COP(=O)(O)O[C@H]2[C@@H](OC)[C@H](n3ccc(N)nc3=O)O[C@@H]2COP(=O)(O)O[C@H]2[C@@H](OC)[C@H](n3ccc(=O)[nH]c3=O)O[C@@H]2COP(=O)(O)O[C@H]2[C@@H](OC)[C@H](n3ccc(N)nc3=O)O[C@@H]2COP(=O)(O)O[C@H]2[C@@H](OC)[C@H](n3cnc4c(N)ncnc43)O[C@@H]2COP(=O)(O)O[C@H]2[C@@H](OC)[C@H](n3ccc(=O)[nH]c3=O)O[C@@H]2COP(=O)(O)O[C@H]2[C@@H](OC)[C@H](n3ccc(N)nc3=O)O[C@@H]2COP(=O)(O)O[C@H]2[C@@H](OC)[C@H](n3cnc4c(N)ncnc43)O[C@@H]2COP(=O)(O)O[C@H]2[C@@H](OC)[C@H](n3ccc(N)nc3=O)O[C@@H]2COP(=O)(O)O[C@H]2[C@@H](OC)[C@H](n3cnc4c(N)ncnc43)O[C@@H]2COP(=O)(O)OP(=O)(O)O[C@H]2[C@@H](OC)[C@H](n3cnc4c(N)ncnc43)O[C@@H]2COP(=O)(O)O[C@H]2[C@@H](OC)[C@H](n3ccc(N)nc3=O)O[C@@H]2COP(=O)(O)O[C@H]2[C@@H](OC)[C@H](n3ccc(N)nc3=O)O[C@@H]2COP(=O)(O)O[C@H]2[C@@H](OC)[C@H](n3ccc(N)nc3=O)O[C@@H]2COP(=O)(O)O[C@H]2[C@@H](OC)[C@H](n3cnc4c(N)ncnc43)O[C@@H]2COP(=O)(O)O[C@H]2C[C@H](n3cc(C)c(=O)[nH]c3=O)O[C@@H]2CN2C=C(CO[C@H]3CC[C@@]4(C)C(=CC[C@H]5[C@@H]6CC[C@H]([C@H](C)CCCC(C)C)[C@@]6(C)CC[C@@H]54)C3)NN2)O[C@H]1n1ccc(N)nc1=O | 50% | Non-toxic | Dose-dependent effect | –
CO[C@@H]1[C@H](OP(=O)(O)O)[C@@H](COP(=O)(O)O[C@H]2[C@@H](OC)[C@H](n3cnc4c(=O)[nH]c(N)nc43)O[C@@H]2COP(=O)(O)O[C@H]2[C@@H](OC)[C@H](n3cnc4c(=O)[nH]c(N)nc43)O[C@@H]2COP(=O)(O)O[C@H]2[C@@H](OC)[C@H](n3ccc(N)nc3=O)O[C@@H]2COP(=O)(O)O[C@H]2[C@@H](OC)[C@H](n3ccc(=O)[nH]c3=O)O[C@@H]2COP(=O)(O)O[C@H]2[C@@H](OC)[C@H](n3ccc(N)nc3=O)O[C@@H]2COP(=O)(O)O[C@H]2[C@@H](OC)[C@H](n3cnc4c(N)ncnc43)O[C@@H]2COP(=O)(O)O[C@H]2[C@@H](OC)[C@H](n3ccc(=O)[nH]c3=O)O[C@@H]2COP(=O)(O)O[C@H]2[C@@H](OC)[C@H](n3ccc(N)nc3=O)O[C@@H]2COP(=O)(O)O[C@H]2[C@@H](OC)[C@H](n3cnc4c(N)ncnc43)O[C@@H]2COP(=O)(O)O[C@H]2[C@@H](OC)[C@H](n3ccc(N)nc3=O)O[C@@H]2COP(=O)(O)O[C@H]2[C@@H](OC)[C@H](n3cnc4c(N)ncnc43)O[C@@H]2COP(=O)(O)OP(=O)(O)O[C@H]2[C@@H](OC)[C@H](n3cnc4c(N)ncnc43)O[C@@H]2COP(=O)(O)O[C@H]2[C@@H](OC)[C@H](n3ccc(N)nc3=O)O[C@@H]2COP(=O)(O)O[C@H]2[C@@H](OC)[C@H](n3ccc(N)nc3=O)O[C@@H]2COP(=O)(O)O[C@H]2[C@@H](OC)[C@H](n3ccc(N)nc3=O)O[C@@H]2COP(=O)(O)O[C@H]2[C@@H](OC)[C@H](n3cnc4c(N)ncnc43)O[C@@H]2COP(=O)(O)O)O[C@H]1n1ccc(N)nc1=O | – | – | inactive | –
CCCCCCCCCCCCCCCCCCOCC1=CN(C[C@H]2O[C@@H](n3cc(C)c(=O)[nH]c3=O)C[C@@H]2OP(=O)(O)OC[C@H]2O[C@@H](n3cnc4c(N)ncnc43)[C@H](OC)[C@@H]2OP(=O)(O)OC[C@H]2O[C@@H](n3ccc(N)nc3=O)[C@H](OC)[C@@H]2OP(=O)(O)OC[C@H]2O[C@@H](n3ccc(N)nc3=O)[C@H](OC)[C@@H]2OP(=O)(O)OC[C@H]2O[C@@H](n3ccc(N)nc3=O)[C@H](OC)[C@@H]2OP(=O)(O)OC[C@H]2O[C@@H](n3cnc4c(N)ncnc43)[C@H](OC)[C@@H]2OP(=O)(O)OP(=O)(O)OC[C@H]2O[C@@H](n3cnc4c(N)ncnc43)[C@H](OC)[C@@H]2OP(=O)(O)OC[C@H]2O[C@@H](n3ccc(N)nc3=O)[C@H](OC)[C@@H]2OP(=O)(O)OC[C@H]2O[C@@H](n3cnc4c(N)ncnc43)[C@H](OC)[C@@H]2OP(=O)(O)OC[C@H]2O[C@@H](n3ccc(N)nc3=O)[C@H](OC)[C@@H]2OP(=O)(O)OC[C@H]2O[C@@H](n3ccc(=O)[nH]c3=O)[C@H](OC)[C@@H]2OP(=O)(O)OC[C@H]2O[C@@H](n3cnc4c(N)ncnc43)[C@H](OC)[C@@H]2OP(=O)(O)OC[C@H]2O[C@@H](n3ccc(N)nc3=O)[C@H](OC)[C@@H]2OP(=O)(O)OC[C@H]2O[C@@H](n3ccc(=O)[nH]c3=O)[C@H](OC)[C@@H]2OP(=O)(O)OC[C@H]2O[C@@H](n3ccc(N)nc3=O)[C@H](OC)[C@@H]2OP(=O)(O)OC[C@H]2O[C@@H](n3cnc4c(=O)[nH]c(N)nc43)[C@H](OC)[C@@H]2OP(=O)(O)OC[C@H]2O[C@@H](n3cnc4c(=O)[nH]c(N)nc43)[C@H](OC)[C@@H]2OP(=O)(O)OC[C@H]2O[C@@H](n3ccc(N)nc3=O)[C@H](OC)[C@@H]2OP(=O)(O)O)NN1 | – | Non-toxic | Dose-dependent effect | 50%
